In PubChem BioAssay AID248 (DTP/NCI, 2004):
Inconclusive results and toxic doses are left out. Cut-off read from the data, not from the text of the source: active = T/C of 150% or more; inactive = T/C below 125%.

Tested on: L1210 leukemia ip in BDF1 mice, survival T/C
Assay: NCI In Vivo Anticancer Drug Screen. Data for tumor model L1210 Leukemia (intraperitoneal) in B6D2F1 (BDF1) mice
Conditions: endpoint: mean survival time, higher = longer survival
Outline: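 Value reflects the ratio of survival in compound-treated mice to survival in vehicle-treated controls, with both groups carrying the same transplanted tumor.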

[1] = dose: 100.0 mg/kg/injection, schedule: Q01DX001 (ip), vehicle: carboxymethylcellulose (CMC)
[2] = dose: 200.0 mg/kg/injection, schedule: Q01DX001 (ip), vehicle: carboxymethylcellulose (CMC)
[3] = dose: 400.0 mg/kg/injection, schedule: Q01DX001 (ip), vehicle: carboxymethylcellulose (CMC)
[4] = dose: 100.0 mg/kg/injection, schedule: Q04DX003 (ip), vehicle: saline
[5] = dose: 200.0 mg/kg/injection, schedule: Q04DX003 (ip), vehicle: saline
[6] = dose: 400.0 mg/kg/injection, schedule: Q04DX003 (ip), vehicle: saline
[7] = dose: 100.0 mg/kg/injection, schedule: Q01DX009 (ip), vehicle: Klucel (hydroxypropylcellulose) (HPC)
[8] = dose: 100.0 mg/kg/injection, schedule: Q04DX003 (ip), vehicle: Klucel (hydroxypropylcellulose) (HPC)
[9] = dose: 200.0 mg/kg/injection, schedule: Q01DX009 (ip), vehicle: Klucel (hydroxypropylcellulose) (HPC)
[10] = dose: 200.0 mg/kg/injection, schedule: Q04DX003 (ip), vehicle: Klucel (hydroxypropylcellulose) (HPC)
[11] = dose: 400.0 mg/kg/injection, schedule: Q01DX009 (ip), vehicle: Klucel (hydroxypropylcellulose) (HPC)
[12] = dose: 400.0 mg/kg/injection, schedule: Q04DX003 (ip), vehicle: Klucel (hydroxypropylcellulose) (HPC)
[13] = dose: 100.0 mg/kg/injection, schedule: Q01DX001 (ip), vehicle: saline with Tween-80
[14] = dose: 200.0 mg/kg/injection, schedule: Q01DX001 (ip), vehicle: saline with Tween-80
[15] = dose: 400.0 mg/kg/injection, schedule: Q01DX001 (ip), vehicle: saline with Tween-80
[16] = dose: 100.0 mg/kg/injection, schedule: Q04DX002 (ip), vehicle: saline with Tween-80
[17] = dose: 200.0 mg/kg/injection, schedule: Q04DX002 (ip), vehicle: saline with Tween-80

Measured: T/C

CC/C(=C(/CC)c1ccc(OP(=O)(O)O)cc1)c1ccc(OP(=O)(O)O)cc1
inactive: [1] 108 % of control | dose: 100.0 mg/kg/injection, schedule: Q01DX001 (ip), vehicle: water 101 % of control | dose: 100.0 mg/kg/injection, schedule: Q04DX003 (sc), vehicle: olive oil, sesame oil, peanut oil 103 % of control | [2] 95 % of control | dose: 200.0 mg/kg/injection, schedule: Q01DX001 (ip), vehicle: water 97 % of control | dose: 200.0 mg/kg/injection, schedule: Q04DX003 (sc), vehicle: olive oil, sesame oil, peanut oil 102 % of control | [3] 106 % of control | dose: 400.0 mg/kg/injection, schedule: Q01DX001 (ip), vehicle: water 98 % of control | dose: 400.0 mg/kg/injection, schedule: Q04DX003 (sc), vehicle: olive oil, sesame oil, peanut oil 107 % of control

O=C(O)c1ccc(CCCCl)cc1
inactive: dose: 12.5 mg/kg/injection, schedule: Q01DX001 (ip), vehicle: Klucel (hydroxypropylcellulose) (HPC) 98 % of control | dose: 25.0 mg/kg/injection, schedule: Q01DX001 (ip), vehicle: Klucel (hydroxypropylcellulose) (HPC) 103 % of control | dose: 50.0 mg/kg/injection, schedule: Q01DX001 (ip), vehicle: Klucel (hydroxypropylcellulose) (HPC) 94 % of control

CCCCCCCCCCCCCCCc1ccc(C(=O)C[n+]2ccccc2)cc1
inactive: dose: 16.5 mg/kg/injection, schedule: Q01DX009 (ip), vehicle: saline with Tween-80 114 % of control | dose: 25.0 mg/kg/injection, schedule: Q01DX009 (ip), vehicle: saline with Tween-80 120 % of control

CCOP(=S)(NCCCOC)OCC
inactive: dose: 100.0 mg/kg/injection, schedule: Q01DX001 (ip), vehicle: other 94 % of control | dose: 100.0 mg/kg/injection, schedule: Q01DX009 (ip), vehicle: other 92 % of control | dose: 100.0 mg/kg/injection, schedule: Q04DX003 (ip), vehicle: other 87 % of control | dose: 200.0 mg/kg/injection, schedule: Q01DX001 (ip), vehicle: other 93 % of control | dose: 200.0 mg/kg/injection, schedule: Q01DX009 (ip), vehicle: other 93 % of control | dose: 200.0 mg/kg/injection, schedule: Q04DX003 (ip), vehicle: other 92 % of control | dose: 400.0 mg/kg/injection, schedule: Q01DX001 (ip), vehicle: other 98 % of control | dose: 400.0 mg/kg/injection, schedule: Q01DX009 (ip), vehicle: other 88 % of control | dose: 400.0 mg/kg/injection, schedule: Q04DX003 (ip), vehicle: other 93 % of control

NC(=O)NOCC(N)C(=O)O (stereo not drawn)
inactive: [4] 102 % of control | [5] 102 % of control | [6] 97 % of control

CCOC(O)C(Cl)(Cl)Cl (stereo not drawn)
inactive: dose: 100.0 mg/kg/injection, schedule: Q01DX009 (ip), vehicle: saline 103 % of control | [4] 100 % of control | dose: 200.0 mg/kg/injection, schedule: Q01DX009 (ip), vehicle: saline 102 % of control | [5] 103 % of control | dose: 400.0 mg/kg/injection, schedule: Q01DX009 (ip), vehicle: saline 92 % of control | [6] 90 % of control

CCC1CN2C(=N1)c1ccccc1-c1cc([N+](=O)[O-])ccc12 (stereo not drawn)
inactive: [7] 101 % of control | [8] 99 % of control | [9] 104 % of control | [10] 106 % of control | [11] 95 % of control | [12] 97 % of control

CC1=C(c2ccccc2)C(c2ccccc2)=C(C)C1=NNc1ccc([N+](=O)[O-])cc1[N+](=O)[O-]
inactive: [13] 86 % of control | [14] 86 % of control | [15] 86 % of control

Cc1c(NC=O)c(=O)n(-c2ccccc2)n1C
inactive: [7] 92 % of control | [8] 107 % of control | [9] 93 % of control | [10] 100 % of control | [11] 100 % of control | [12] 105 % of control

CC1=NN(c2ccccc2)C(=O)C1N=Nc1ccc(S(=O)(=O)Nc2nccc(C)n2)cc1 (stereo not drawn)
inactive: [1] 98 % of control | [2] 98 % of control | [3] 88 % of control

Cc1cc(C)c(-n2c(C)nc3ccccc3c2=O)c([N+](=O)[O-])c1
inactive: dose: 12.5 mg/kg/injection, schedule: Q01DX009 (ip), vehicle: Klucel (hydroxypropylcellulose) (HPC) 96 % of control | dose: 25.0 mg/kg/injection, schedule: Q01DX009 (ip), vehicle: Klucel (hydroxypropylcellulose) (HPC) 104 % of control | dose: 50.0 mg/kg/injection, schedule: Q01DX009 (ip), vehicle: Klucel (hydroxypropylcellulose) (HPC) 89 % of control | [7] 109 % of control

COC(=O)c1ccccc1N=NNc1ccc(C)c(Cl)c1
inactive: [16] 94 % of control | [17] 94 % of control | dose: 400.0 mg/kg/injection, schedule: Q04DX002 (ip), vehicle: saline with Tween-80 87 % of control

O=C(N/N=C/c1ccccc1)c1cc([N+](=O)[O-])cc([N+](=O)[O-])c1
inactive: [8] 90 % of control | [10] 108 % of control | [12] 101 % of control

O=C(NCCCCC(NC(=O)OCc1ccccc1)C(=O)NCCCNCCCCNCCCNC(=O)C(CCCCNC(=O)OCc1ccccc1)NC(=O)OCc1ccccc1)OCc1ccccc1 (stereo not drawn)
inactive: dose: 2.5 mg/kg/injection, schedule: Q01DX Z (ip), vehicle: saline 93 % of control | dose: 5.0 mg/kg/injection, schedule: Q01DX Z (ip), vehicle: saline 96 % of control | dose: 10.0 mg/kg/injection, schedule: Q01DX Z (ip), vehicle: saline 98 % of control | dose: 20.0 mg/kg/injection, schedule: Q01DX Z (ip), vehicle: saline 96 % of control

CCc1ccccc1NC(=S)NC1CCCCC1
inactive: [7] 92 % of control | [9] 101 % of control

NC(=O)COc1c(F)c(F)c(F)c(F)c1F
inactive: dose: 100.0 mg/kg/injection, schedule: Q01DX009 (ip), vehicle: saline with Tween-80 101 % of control | dose: 200.0 mg/kg/injection, schedule: Q01DX009 (ip), vehicle: saline with Tween-80 101 % of control | dose: 400.0 mg/kg/injection, schedule: Q01DX009 (ip), vehicle: saline with Tween-80 97 % of control

Cc1ccc(C(=O)Nc2c(N)ncnc2N)cc1[N+](=O)[O-]
inactive: dose: 75.0 mg/kg/injection, schedule: Q01DX001 (ip), vehicle: saline with Tween-80 101 % of control | dose: 150.0 mg/kg/injection, schedule: Q01DX001 (ip), vehicle: saline with Tween-80 98 % of control | dose: 300.0 mg/kg/injection, schedule: Q01DX001 (ip), vehicle: saline with Tween-80 102 % of control

CC(C)(C)C(=O)Oc1ccc(C(C)(C)C)cc1
inactive: [7] 101 % of control | [8] 104 % of control | [9] 102 % of control | [10] 98 % of control | [11] 98 % of control | [12] 92 % of control

COC(=O)COc1cc(Cl)c(Cl)cc1Cl
inactive: [16] 95 % of control | [17] 95 % of control

CCOC(=O)c1ccc(N(CC2CO2)S(=O)(=O)c2ccc(C)cc2)cc1 (stereo not drawn)
inactive: dose: 100.0 mg/kg/injection, schedule: Q04DX003 (ip), vehicle: saline with Tween-80 105 % of control | dose: 200.0 mg/kg/injection, schedule: Q04DX003 (ip), vehicle: saline with Tween-80 90 % of control | dose: 400.0 mg/kg/injection, schedule: Q04DX003 (ip), vehicle: saline with Tween-80 92 % of control

CC1=C(N)/C(=C(/C)C#N)OC1=O
inactive: [13] 92 % of control | [14] 100 % of control | [15] 92 % of control

C=CCn1c(/N=C\N(C)C)cc(=O)[nH]c1=O
inactive: [7] 103 % of control | [8] 97 % of control | [9] 107 % of control | [10] 97 % of control | [11] 100 % of control | [12] 89 % of control

CN1C(c2ccccc2)NC(=O)C12CCN(CCCC(=O)c1ccccc1)CC2 (stereo not drawn)
inactive: dose: 100.0 mg/kg/injection, schedule: Q01DX001 (ip), vehicle: Klucel (hydroxypropylcellulose) (HPC) 100 % of control | dose: 200.0 mg/kg/injection, schedule: Q01DX001 (ip), vehicle: Klucel (hydroxypropylcellulose) (HPC) 96 % of control | dose: 400.0 mg/kg/injection, schedule: Q01DX001 (ip), vehicle: Klucel (hydroxypropylcellulose) (HPC) 100 % of control

O=c1[nH][nH]c(-c2ccccc2)c1Cc1ccccc1
inactive: [4] 95 % of control | [5] 96 % of control | [6] 96 % of control
